According to paper PMC7979765, “trans-Translation inhibitors bind to a novel site on the ribosome and clear Neisseria gonorrhoeae in vivo” (Nature Communications, 2021):
≈ marks a conversion by molar mass, not a printed value. Where “and” joins values, the source holds several entries; their conditions need not be identical. Identical values can stand only once. Like-named read-outs stand apart in the source and are kept apart here.

How the values were obtained:
[1] = Liver microsome stability, murine; type: in vitro ADME, mouse
Outline: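 Compounds incubated with liver microsomes plus NADPH over 30 min; parent remaining quantified by reverse-phase LC/MS. Half-life from linear regression over several time points.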

Pseudomonas aeruginosa = test: MIC, microbroth dilution; type: cell-based
trans-translation [2] = test: microbe, parasite or virus in culture; type: cell-based, Escherichia coli
[3] = Aqueous solubility (nephelometric); type: physicochemical; conditions: aqueous solution (buffer not named); single replicates
trans-translation [4] = test: In vitro trans-translation assay (S12 extract, nanoluc-ns, tmRNA-nl); type: biochemical, Escherichia coli; set-up: background subtraction: unit not given here; conditions: for normalized: activity, 0 = 100
From the text: The in vitro trans-translation assay is designed to produce the first 157 amino acids of nano-luciferase from a non-stop mRNA (nanoluc-ns) and add the C-terminal peptide […] via a mutant version of E. coli tmRNA (tmRNA-nl) to reconstitute an active nano-luciferase[45]. In this assay, the tagged nano-luciferase gene has >30,000-fold increase in activity over the peptide made in the absence of tmRNA-nl.
S12 lysates were made according to the procedure of Kim, et al.[46]. Briefly, a culture of E. coli BL21 (DE3) cells containing a pET28 plasmid carrying the E. coli T7 polymerase gene was grown at 37 °C to an OD600 = 0.8, induced with 1 mM IPTG and grown for an additional 3 h. Cells were harvested by centrifugation at 20,000 × g for 10 min at 4 °C and the pellet was resuspended in buffer A (20 mM Tris-acetate (pH 8.2), 14 mM Mg(OAc)2, 60 mM potassium glutamate, 1 mM DTT). Cells were lysed by sonication, the lysate was clarified by centrifugation at 12,000 × g for 10 min, and the supernatant was stored at −80 °C.
E. coli SmpB was purified as previously described. tmRNA-nl, a variant of E. coli tmRNA encoding the final 11 residues of nano-luciferase, was transcribed from the tmRNA-nl synthetic DNA sequence in vitro, purified, and folded as previously described for wild-type E. coli tmRNA[3]. The nanoluc-stop template DNA was prepared as previously described[3] by PCR amplification from pMC1 using T7 universal and nanoluc-stop primers. The nanoluc-ns was prepared in a similar manner using pMC1 with T7 universal and nanoluc-ns primers.
For in vitro trans-translation, tmRNA-nl and SmpB were premixed and stored on ice. S12 lysate (2 μl), freshly made polymix buffer (2 μl)[47] (final reaction concentrations 5 mM Hepes pH 7.6, 5 mM NH4Cl, 0.5 mM CaCl2, 1.5 mm MgCl2, 1 mM DTT, 8 mm putrescene, 2 mm ATP, 2 mM GTP, 1 mM CTP, 1 mM UTP, 0.3 mM each amino acid, 3 mg/ml E. coli tRNAs), nanoluc-ns template (0.5 μl; 60 ng) and 2 µl water were mixed and incubated at 37 °C for 5 min. This solution was dispensed to tubes containing 0.5 μl of different concentrations of an inhibitor prepared in 75% acetonitrile, 25% water, and incubated at 37 °C for 5 min. The tmRNA-nl/SmpB mixture (0.5 μl each, 2 μM final) was added to each tube and the samples were incubated at 37 °C for 1.5 h. NanoLuc substrate (Promega) was prepared according to the manufacturer’s instructions, one volume of this substrate solution was added to each sample tube, and the reactions transferred to a white 96-well plate. Luminescence readings were obtained using the SpectraMax i3 microplate reader. Data analysis was performed using GraphPad Prism 8.

Solubility (formulated) = type: physicochemical
[5] = Serum protein binding, murine; type: in vitro ADME, mouse; conditions: Eurofins; for fraction unbound: mouse, serum, read-out: Serum binding (% bound) Murine (converted)
Protocol: Serum protein binding was determined using an equilibrium dialysis method as described. The amount of compound in each chamber (buffer and serum) was measured using methods for reverse-phase liquid chromatography/mass spectroscopy methods that were customized for each compound.

For `O=C(Nc1nnc(-c2ccc(F)cc2)o1)N1CCc2ccccc2C1` [MBX-4132], the “Microsomal stability (t½, min) Murine” value ([1]; Reported value, Eurofins) was greater than 120 min, the half-life ([1]; mouse, murine liver microsomes, read-out: MMS / Microsomal Stability (t1/2), murine) was greater than 2 h and the “Average MLMS t½” value ([1]; murine liver microsomes, average of replicates) was greater than 2 h. The “MLMS t½” value ([1]; murine liver microsomes, individual replicates) was greater than 2 h, the MIC (Pseudomonas aeruginosa; Pseudomonas aeruginosa ATCC 27853, replicates) was no less than 34 µg/mL and the MIC (Pseudomonas aeruginosa; Pseudomonas aeruginosa, ATCC27853, Pseudomonas aeruginosa ATCC 27853, replicates, read-out: MIC) was no less than 34 µg/mL. The MIC (Pseudomonas aeruginosa; Pseudomonas aeruginosa, ATCC27853, strain ATCC 27853, read-out: MIC) was no less than 34 µg/mL, the IC50 (trans-translation [2]; Escherichia coli, E. coli non-stop luciferase reporter, Fig. 1B, read-out: in vivo luc-trpAt IC50) was 600 nM and the fold induction at 0.046875 µM (trans-translation [2]; Escherichia coli, read-out: fold induction, AVE 190919+190925, [4132] 0.046875 uM) was 1.01. For the same molecule, the fold induction at 0.0625 µM (trans-translation [2]; Escherichia coli, read-out: fold induction, AVE 190919+190925, [4132] 0.0625 uM) was 0.976, the fold induction at 0.09375 µM (trans-translation [2]; Escherichia coli, read-out: fold induction, AVE 190919+190925, [4132] 0.09375 uM) was 1.01 and the fold induction at 0.125 µM (trans-translation [2]; Escherichia coli, read-out: fold induction, AVE 190919+190925, [4132] 0.125 uM) was 1.05. For the same molecule, the fold induction at 0.1875 µM (trans-translation [2]; Escherichia coli, read-out: fold induction, AVE 190919+190925, [4132] 0.1875 uM) was 1.2, the fold induction at 0.25 µM (trans-translation [2]; Escherichia coli, read-out: fold induction, AVE 190919+190925, [4132] 0.25 uM) was 1.35 and the fold induction at 0.375 µM (trans-translation [2]; Escherichia coli, read-out: fold induction, AVE 190919+190925, [4132] 0.375 uM) was 1.66. The fold induction at 0.5 µM (trans-translation [2]; Escherichia coli, read-out: fold induction, AVE 190919+190925, [4132] 0.5 uM) was 2, the fold induction at 0.75 µM (trans-translation [2]; Escherichia coli, read-out: fold induction, AVE 190919+190925, [4132] 0.75 uM) was 2.22 and the fold induction at 1 µM (trans-translation [2]; Escherichia coli, read-out: fold induction, AVE 190919+190925, [4132] 1 uM) was 2.22. The fold induction at 1.5 µM (trans-translation [2]; Escherichia coli, read-out: fold induction, AVE 190919+190925, [4132] 1.5 uM) was 2.16, the fold induction at 0.046875 µM (trans-translation [2]; Escherichia coli, read-out: fold induction, AVE per run, [4132] 0.046875 uM, run 190919 or 190925) was 1.09 and the fold induction at 0.0625 µM (trans-translation [2]; Escherichia coli, read-out: fold induction, AVE per run, [4132] 0.0625 uM, run 190919 or 190925) was 1.02. It also gave a fold induction at 0.09375 µM (trans-translation [2]; Escherichia coli, read-out: fold induction, AVE per run, [4132] 0.09375 uM, run 190919 or 190925) of 1.04, a fold induction at 0.125 µM (trans-translation [2]; Escherichia coli, read-out: fold induction, AVE per run, [4132] 0.125 uM, run 190919 or 190925) of 1.06 and a fold induction at 0.1875 µM (trans-translation [2]; Escherichia coli, read-out: fold induction, AVE per run, [4132] 0.1875 uM, run 190919 or 190925) of 1.16. For the same molecule, the fold induction at 0.25 µM (trans-translation [2]; Escherichia coli, read-out: fold induction, AVE per run, [4132] 0.25 uM, run 190919 or 190925) was 1.35, the fold induction at 0.375 µM (trans-translation [2]; Escherichia coli, read-out: fold induction, AVE per run, [4132] 0.375 uM, run 190919 or 190925) was 1.66 and the fold induction at 0.5 µM (trans-translation [2]; Escherichia coli, read-out: fold induction, AVE per run, [4132] 0.5 uM, run 190919 or 190925) was 1.82. It also gave a fold induction at 0.75 µM (trans-translation [2]; Escherichia coli, read-out: fold induction, AVE per run, [4132] 0.75 uM, run 190919 or 190925) of 1.93, a fold induction at 1 µM (trans-translation [2]; Escherichia coli, read-out: fold induction, AVE per run, [4132] 1 uM, run 190919 or 190925) of 1.9 and a fold induction at 1.5 µM (trans-translation [2]; Escherichia coli, read-out: fold induction, AVE per run, [4132] 1.5 uM, run 190919 or 190925) of 1.86. The “fold induction, AVE per run” value (trans-translation [2]; [4132] 0.046875 uM, run 190919 or 190925, 0.046875 µM) was 0.9318, the “fold induction, AVE per run” value (trans-translation [2]; [4132] 0.0625 uM, run 190919 or 190925, 0.0625 µM) was 0.9331 and the “fold induction, AVE per run” value (trans-translation [2]; [4132] 0.09375 uM, run 190919 or 190925, 0.09375 µM) was 0.9749. The “fold induction, AVE per run” value (trans-translation [2]; [4132] 0.125 uM, run 190919 or 190925, 0.125 µM) was 1.0347, the “fold induction, AVE per run” value (trans-translation [2]; [4132] 0.1875 uM, run 190919 or 190925, 0.1875 µM) was 1.234 and the “fold induction, AVE per run” value (trans-translation [2]; [4132] 0.25 uM, run 190919 or 190925, 0.25 µM) was 1.356. For the same molecule, the “fold induction, AVE per run” value (trans-translation [2]; [4132] 0.375 uM, run 190919 or 190925, 0.375 µM) was 1.653, the “fold induction, AVE per run” value (trans-translation [2]; [4132] 0.5 uM, run 190919 or 190925, 0.5 µM) was 2.18 and the “fold induction, AVE per run” value (trans-translation [2]; [4132] 0.75 uM, run 190919 or 190925, 0.75 µM) was 2.51. For the same molecule, the “fold induction, AVE per run” value (trans-translation [2]; [4132] 1 uM, run 190919 or 190925, 1 µM) was 2.546, the “fold induction, AVE per run” value (trans-translation [2]; [4132] 1.5 uM, run 190919 or 190925, 1.5 µM) was 2.459 and the Solubility [3] was 100 µM (≈ 33.8 µg/mL). For the same molecule, the normalized (trans-translation [4]; [4132] 0.01) was 102.817 and 102.626 and 90.8451, the background subtraction (trans-translation [4]; [4132] 0.05) was 284 and the “raw luminescence read (rlu)” value (trans-translation [4]; [4132] 0.05) was 319 rlu. The normalized (trans-translation [4]; [4132] 0.05) was 66.6667, the background subtraction (trans-translation [4]; [4132] 0.1) was 337 and 425 and 284 and the “raw luminescence read (rlu)” value (trans-translation [4]; [4132] 0.1) was 443 rlu and 372 rlu and 319 rlu. The normalized (trans-translation [4]; [4132] 0.1) was 59.331 and 41.3424 and 66.6667, the background subtraction (trans-translation [4]; [4132] 0.5) was 266 and 178 and the “raw luminescence read (rlu)” value (trans-translation [4]; [4132] 0.5) was 301 rlu and 213 rlu. The normalized (trans-translation [4]; [4132] 0.5) was 46.831 and 41.784, the background subtraction (trans-translation [4]; [4132] 1) was 213 and 266 and 426 and the “raw luminescence read (rlu)” value (trans-translation [4]; [4132] 1) was 248 rlu and 284 rlu and 461 rlu. The background subtraction (trans-translation [4]; [4132] 2) was 302 and 230, the “raw luminescence read (rlu)” value (trans-translation [4]; [4132] 2) was 337 rlu and 248 rlu and the IC50 (trans-translation [4]; in vitro reconstituted assay) was 400 nM. For the same molecule, the Solubility (Solubility (formulated)) was 5000 µg/mL (≈ 14800 µM), the “Serum binding (% bound) Murine” value ([5]; Replicate 1/2) was 99.9% and 95.5% and the fraction unbound ([5]; Average Value) was 0.023. For the same molecule, the fraction unbound ([5]; Reported value) was 0.02.
